In ChEMBL document CHEMBL1150745, “Plant anticancer agents, XLVI. Cytotoxic casbane-type constituents of Agrostistachys hookeri” (1988):
≈ marks a conversion by molar mass, not a printed value.

System: P388
Assay: Cytotoxicity against mouse P388 cells
Type: functional
Conditions: read-out: ED50 (the source's name)

C/C1=C/[C@H](O)C/C(C)=C/[C@H](O)C(=O)/C(C)=C/[C@H]2[C@@H](CC1)C2(C)C [AGROSTISTACHIN]
EC50: 1.4 µg/mL (≈ 4.4 µM)

C/C1=C/[C@H](O)C/C(C)=C/[C@H](O)C(=O)/C(C)=C/[C@H]2[C@@H](CC1)[C@]2(C)CO
EC50: 0.8 µg/mL (≈ 2.39 µM)

C/C1=C\[C@H](O)C(=O)/C(C)=C/[C@@H]2[C@@H](CCC(C)(O)/C=C/C1)C2(C)C (some centres undefined) [AGROSKERIN]
EC50: 1.4 µg/mL (≈ 4.4 µM)

C/C1=C/C(=O)C/C(C)=C/[C@H](O)C(=O)/C(C)=C/[C@H]2[C@@H](CC1)C2(C)C
EC50: 2.8 µg/mL (≈ 8.85 µM)
